How the values were obtained:
TNF-alpha = TNF-alpha Quantification Assay (ELISA), LPS-stimulated RAW 264.7; type: cell-based; settings: Mus musculus, RAW264.7; at 10 μM; read-out: TNFα: % inh.
IL6 = experiment: IL-6 Quantification Assay (ELISA), LPS-stimulated RAW 264.7; type: cell-based; set-up: inhibition: dose or concentration left out as unconfirmed; settings: Mus musculus, RAW264.7; read-out: IL-6: % inh.
Akt phosphorylation = experiment: Akt Phosphorylation Assay (western blot), Panc-1; type: cell-based, human; settings: at 10 μM, * = activation
In short: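 Panc-1 (KRas G12D) cells were treated with compound at 10 μM final (0.3% DMSO) for 6 h at 37 °C, or with serial dilutions for IC50. Cells were either serum-starved overnight in 0.5% FBS and then stimulated with 1.5 ng/ml EGF for 15 min, or kept in 10% FBS without stimulation. Akt Ser473 phosphorylation in lysates was read by western blot.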

Erk1/2 phosphorylation = experiment: Erk1/2 Phosphorylation Assay (western blot), Panc-1; type: cell-based, human; settings: at 10 μM, * = activation
In short: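 KRas G12D Panc-1 cells were treated 6 h at 37° C with compound at 10 μM or serial dilutions for IC50 (0.3% DMSO). In method 1, cells were serum-starved overnight (0.5% FBS) and then given 1.5 ng/ml EGF for 15 min. In method 2, cells stayed in 10% FBS without stimulation. Lysate phospho-Erk1/2 (Thr202/Tyr204) was read by western blot.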

| Compound | inhibition at 10 µM (TNF-alpha) | inhibition (IL6) | % inh of Akt phosphorylation in Panc-1 (Akt phosphorylation) | % inh of Erk1/2 phosphorylation in Panc-1 (Erk1/2 phosphorylation) |
| --- | --- | --- | --- | --- |
| COc1ccnc(Nc2nc(-c3nccn3C)nn3cc(-c4cccnc4)c(-c4cccnc4)c23)c1 [Compound 169, N-(4-methoxypyridin-2-yl)-2-(1-methyl-1H-imidazol-2-yl)-5,6-di(pyridin-3-yl)pyrrolo[2,1-f][1,2,4]triazin-4-amine] | 0% | 1 to 24% | C* (46-84% activation) | B* (26-49% activation) |
| CO[C@H]1CC[C@@H](Nc2nc(-c3nccn3C)nn3cc(-c4ccn(C)n4)c(C)c23)C1 (racemic) [Compound 133, rac N-((1R,3S)-3-Methoxycyclopentyl)-5-methyl-2-(1-methyl-1H-imidazol-2-yl)-6-(1-methyl-1H-pyrazol-3-yl)pyrrolo[2,1-f][1,2,4]triazin-4-amine] | 1 to 24% | 0% | B (26-49% inhibition) | A (1-25% inhibition) |
| COc1cc(Nc2nc(-c3nccn3C)nn3cc(-c4cccnc4)c(-c4ccccn4)c23)ncn1 [Compound 167, N-(6-Methoxypyrimidin-4-yl)-2-(1-methyl-1H-imidazol-2-yl)-5-(pyridin-2-yl)-6-(pyridin-3-yl)pyrrolo[2,1-f][1,2,4]triazin-4-amine] | 0% | 0% | B* (26-49% activation) | A (1-25% inhibition) |
| COc1ccnc(Nc2nc(-c3nccn3C)nn3cc(-c4cnn(C(C)C)c4)c(C)c23)c1 [Compound 165, 6-(1-Isopropyl-1H-pyrazol-4-yl)-N-(4-methoxypyridin-2-yl)-5-methyl-2-(1-methyl-1H-imidazol-2-yl)pyrrolo[2,1-f][1,2,4]triazin-4-amine] | 1 to 24% | 50 to 74% | D* (85-100% activation) | C* (46-84% activation) |
| CO[C@@H]1CC[C@@H](Nc2nc(-c3nccn3C)nn3cc(-c4ccn(C)n4)c(C)c23)C1 (racemic) [Compound 132, rac N-((1R,3R)-3-Methoxycyclopentyl)-5-methyl-2-(1-methyl-1H-imidazol-2-yl)-6-(1-methyl-1H-pyrazol-3-yl)pyrrolo[2,1-f][1,2,4]triazin-4-amine] | 0% | 0% | A (1-25% inhibition) | 0 (0% inhibition) |
| CCc1nc(Nc2nc(-c3nccn3C)nn3cc(-c4ccn(C)n4)c(C)c23)nn1C [Compound 108, N-(5-Ethyl-1-methyl-1H-1,2,4-triazol-3-yl)-5-methyl-2-(1-methyl-1H-imidazol-2-yl)-6-(1-methyl-1H-pyrazol-3-yl)pyrrolo[2,1-f][1,2,4]triazin-4-amine] | 0% | 50 to 74% | D* (85-100% activation) | A* (1-25% activation) |
| Cc1c(-c2ccn(C)n2)cn2nc(-c3nccn3C)nc(Nc3ccccn3)c12 [Compound 118, 5-Methyl-2-(1-methyl-1H-imidazol-2-yl)-6-(1-methyl-1H-pyrazol-3-yl)-N-(pyridin-2-yl)pyrrolo[2,1-f][1,2,4]triazin-4-amine] | 1 to 24% | 25 to 49% | D* (85-100% activation) | D* (85-100% activation) |
| COc1cncnc1Nc1nc(-c2nccn2C)nn2cc(-c3ccn(C)n3)c(C)c12 [Compound 107, N-(5-Methoxypyrimidin-4-yl)-5-methyl-2-(1-methyl-1H-imidazol-2-yl)-6-(1-methyl-1H-pyrazol-3-yl)pyrrolo[2,1-f][1,2,4]triazin-4-amine] | 1 to 24% | 25 to 49% | C* (46-84% activation) | D* (85-100% activation) |
| CO[C@H]1C[C@H](Nc2nc(-c3nccn3C)nn3cc(-c4cccnc4)c(C)c23)C1 [Compound 151, N-((1r,3r)-3-Methoxycyclobutyl)-5-methyl-2-(1-methyl-1H-imidazol-2-yl)-6-(pyridin-3-yl)pyrrolo[2,1-f][1,2,4]triazin-4-amine] | 0% | 0% | C* (46-84% activation) | D* (85-100% activation) |
| COc1cc(Nc2nc(-c3nccn3C)nn3cc(-c4ccn(C(C)C)n4)c(C)c23)ncn1 [Compound 6, 6-(1-Isopropyl-1H-pyrazol-3-yl)-N-(6-methoxypyrimidin-4-yl)-5-methyl-2-(1-methyl-1H-imidazol-2-yl)pyrrolo[2,1-f][1,2,4]triazin-4-amine] | 25 to 49% | 75 to 100% | 0 (0% inhibition) | 0 (0% inhibition) |
| Cc1c(-c2ccn(C)n2)cn2nc(-c3nccn3C)nc(Nc3nccn3C)c12 [Compound 106, 5-Methyl-N,2-bis(1-methyl-1H-imidazol-2-yl)-6-(1-methyl-1H-pyrazol-3-yl)pyrrolo[2,1-f][1,2,4]triazin-4-amine] | 0% | 50 to 74% | D* (85-100% activation) | 0 (0% inhibition) |
| Cc1c(-c2ccn(C)n2)cn2nc(-c3nccn3C)nc(Nc3cc(OCC(F)(F)F)ccn3)c12 [Compound 129, 5-Methyl-2-(1-methyl-1H-imidazol-2-yl)-6-(1-methyl-1H-pyrazol-3-yl)-N-(4-(2,2,2-trifluoroethoxy)pyridin-2-yl)pyrrolo[2,1-f][1,2,4]triazin-4-amine] | 1 to 24% | 50 to 74% | C* (46-84% activation) | D* (85-100% activation) |
| CO[C@H]1C[C@@H](Nc2nc(-c3nccn3C)nn3cc(-c4cccnc4)c(C)c23)C1 [Compound 153, N-((1s,3s)-3-methoxy-cyclobutyl)-5-methyl-2-(1-methyl-1H-imidazol-2-yl)-6-(pyridin-3-yl)pyrrolo[2,1-f][1,2,4]triazin-4-amine] | 0% | 0% | B (26-49% inhibition) | A (1-25% inhibition) |
| Cc1c(-c2ccn(C3CC3)n2)cn2nc(-c3nccn3C)nc(Nc3cc(N(C)C)ccn3)c12 [Compound 145, N^2-(6-(1-Cyclopropyl-1H-pyrazol-3-yl)-5-methyl-2-(1-methyl-1H-imidazol-2-yl)pyrrolo[2,1-f][1,2,4]triazin-4-yl)-N^4,N^4-dimethylpyridine-2,4-diamine] | 1 to 24% | 50 to 74% | D* (85-100% activation) | C* (46-84% activation) |
| CO[C@@H]1CC[C@@H](Nc2nc(-c3nccn3C)nn3cc(-c4cccnc4)c(C)c23)C1 (racemic) [Compound 154, rac N-((1R,3R)-3-methoxy-cyclopentyl)-5-methyl-2-(1-methyl-1H-imidazol-2-yl)-6-(pyridin-3-yl)pyrrolo[2,1-f][1,2,4]triazin-4-amine] | 0% | 25 to 49% | B* (26-49% activation) | C* (46-84% activation) |
| COc1ccnc(Nc2nc(-c3nccn3C)nn3cc(-c4ccn(C5CC5)n4)c(C)c23)c1 [Compound 137, 6-(1-Cyclopropyl-1H-pyrazol-3-yl)-N-(4-methoxypyridin-2-yl)-5-methyl-2-(1-methyl-1H-imidazol-2-yl)pyrrolo[2,1-f][1,2,4]triazin-4-amine] | 1 to 24% | 1 to 24% | D* (85-100% activation) | B* (26-49% activation) |
| Cc1c(-c2ccn(C(C)C)n2)cn2nc(-c3nccn3C)nc(Nc3cc(OCCO)ncn3)c12 [Compound 97, 2-((6-((6-(1-Isopropyl-1H-pyrazol-3-yl)-5-methyl-2-(1-methyl-1H-imidazol-2-yl)pyrrolo[2,1-f][1,2,4]triazin-4-yl)amino)pyrimidin-4-yl)oxy) ethan-1-ol] | 0% | 1 to 24% | D* (85-100% activation) | D* (85-100% activation) |
| Cc1c(-c2ccn(C(C)C)n2)cn2nc(-c3nccn3C)nc(Nc3cc(OCCN(C)C)ncn3)c12 [Compound 123, N-(6-(2-(Dimethylamino)ethoxy)pyrimidin-4-yl)-6-(1-isopropyl-1H-pyrazol-3-yl)-5-methyl-2-(1-methyl-1H-imidazol-2-yl)pyrrolo[2,1-f][1,2,4]triazin-4-amine] | 25 to 49% | 75 to 100% | B* (26-49% activation) | A* (1-25% activation) |
| Cc1c(-c2ccn(C)n2)cn2nc(-c3nccn3C)nc(Nc3nccc(OCCN(C)C)n3)c12 [Compound 105, N-(4-(2-(Dimethylamino)ethoxy)pyrimidin-2-yl)-5-methyl-2-(1-methyl-1H-imidazol-2-yl)-6-(1-methyl-1H-pyrazol-3-yl)pyrrolo[2,1-f][1,2,4]triazin-4-amine] | 0% | 75 to 100% | C* (46-84% activation) | A (1-25% inhibition) |
